How the values were obtained:
Assay type in all cases: in vivo
[1] = system: ragweed (common ragweed, Ambrosia artemisiifolia); experiment: Test C postemergence, visual plant response rating
How it was run: (§1)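 Compounds in a non-phytotoxic solvent with surfactant were applied as a directed soil spray preemergence or to 2–10 cm, one- to two-leaf plants postemergence, in loam–sand soil. After about 10 d in a greenhouse, injury was visually rated against untreated controls on a 0–100 scale (100 = complete control).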

[2] = system: galium (catchweed bedstraw, Galium aparine); experiment: Test C postemergence, visual plant response rating
How it was run: as §1

[3] = system: barnyardgrass (Echinochloa crus-galli); experiment: Test C postemergence, visual plant response rating
How it was run: as §1

[4] = system: Italian ryegrass (Lolium mutiflorum); experiment: Test C postemergence, visual plant response rating
How it was run: as §1

[5] = system: pigweed (Amaranthus retroflexus); experiment: Test C postemergence, visual plant response rating
How it was run: as §1

[6] = system: blackgrass (Alopecurus myosuroides); experiment: Test C postemergence, visual plant response rating
How it was run: as §1

corn (Zea mays) = experiment: Test C postemergence, visual plant response rating
How it was run: as §1

[7] = system: foxtail, giant (giant foxtail, Setaria faberi); experiment: Test C postemergence, visual plant response rating
How it was run: as §1

[8] = system: wheat (Triticum aestivum); experiment: Test C postemergence, visual plant response rating
How it was run: as §1

kochia (Bassia scoparia) [9] = experiment: Test C postemergence, visual plant response rating
How it was run: as §1

[10] = system: barnyardgrass (Echinochloa crus-galli); experiment: Test D flooded paddy test, visual plant response rating; details: 250 g ai/ha, scale 0 to 100 (0 no effect, 100 complete control), 13 to 15 d
How it was run: (§2)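 Plants were grown to the 2-leaf stage, pots flooded to 3 cm above soil, and compound applied directly into the paddy water, with the depth held throughout. After 13 to 15 d in a greenhouse, response was rated visually against untreated controls on a 0–100 scale (0 no effect, 100 complete control).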

[11] = system: duck salad (Heteranthera limosa); experiment: as above; details: 250 g ai/ha, scale 0 to 100 (0 no effect, 100 complete control), 13 to 15 d
How it was run: as §2

[12] = system: sedge umbrella (small-flower umbrella sedge, Cyperus difformis); experiment: as above; details: 250 g ai/ha, scale 0 to 100 (0 no effect, 100 complete control), 13 to 15 d
How it was run: as §2

rice (Oryza sativa) = experiment: as above; details: 250 g ai/ha, scale 0 to 100 (0 no effect, 100 complete control), 13 to 15 d
How it was run: as §2

[13] = system: ragweed (common ragweed, Ambrosia artemisiifolia); experiment: Test C preemergence, visual plant response rating
How it was run: as §1

[14] = system: barnyardgrass (Echinochloa crus-galli); experiment: Test C preemergence, visual plant response rating
How it was run: as §1

[15] = system: Italian ryegrass (Lolium mutiflorum); experiment: Test C preemergence, visual plant response rating
How it was run: as §1

[16] = system: pigweed (Amaranthus retroflexus); experiment: Test C preemergence, visual plant response rating
How it was run: as §1

[17] = system: foxtail, giant (giant foxtail, Setaria faberi); experiment: Test C preemergence, visual plant response rating
How it was run: as §1

kochia (Bassia scoparia) [18] = experiment: Test C preemergence, visual plant response rating
How it was run: as §1

[19] = Test C, postemergence, 125 g ai/ha
[20] = Test C, 31 g ai/ha, 0 is no effect, 100 is complete control
[21] = Test C, 125 g ai/ha, 0 is no effect, 100 is complete control

Row | SMILES | Ragweed plant response rating (0 to 100 scale) ([1]; Postemergence, 31 g ai/ha) | Ragweed plant response rating (0 to 100 scale) [1, 19] | Galium plant response rating (0 to 100 scale) ([2]; Postemergence, 31 g ai/ha) | Galium plant response rating (0 to 100 scale) [2, 19] | Barnyardgrass plant response rating (0 to 100 scale) ([3]; Postemergence, 31 g ai/ha) | Barnyardgrass plant response rating (0 to 100 scale) [3, 19] | Ryegrass, Italian plant response rating (0 to 100 scale) ([4]; Postemergence, 31 g ai/ha) | Ryegrass, Italian plant response rating (0 to 100 scale) [4, 19] | Pigweed plant response rating (0 to 100 scale) ([5]; Postemergence, 31 g ai/ha) | Pigweed plant response rating (0 to 100 scale) [5, 19] | Blackgrass plant response rating (0 to 100 scale) ([6]; Postemergence, 31 g ai/ha) | Blackgrass plant response rating (0 to 100 scale) [6, 19] | Corn plant response rating (0 to 100 scale) (corn (Zea mays); Postemergence, 31 g ai/ha) | Corn plant response rating (0 to 100 scale) (corn (Zea mays); [19]) | Foxtail, Giant plant response rating (0 to 100 scale) ([7]; Postemergence, 31 g ai/ha) | Foxtail, Giant plant response rating (0 to 100 scale) [7, 19] | Wheat plant response rating (0 to 100 scale) ([8]; Postemergence, 31 g ai/ha) | Wheat plant response rating (0 to 100 scale) [8, 19] | Kochia plant response rating (0 to 100 scale) (kochia (Bassia scoparia) [9]; Postemergence, 31 g ai/ha) | Kochia plant response rating (0 to 100 scale) (kochia (Bassia scoparia) [9]; [19]) | other results
1 | CO/N=C(/c1c(O)c(C)nn(C)c1=O)c1cccc2cc(Cl)ccc12 [Compound 159] | 70 | 90 | 60 | 80 | 40 | 60 | 20 | 80 | 90 | 100 | 10 | 30 | 10 | 30 | 50 | 70 | 0 | 10 | 70 | 80 | Plant response rating, Barnyardgrass (Flood) [10]: 0; Plant response rating, Ducksalad (Flood) [11]: 0; Plant response rating, Sedge, Umbrella (Flood) [12]: 0; Plant response rating, Rice (Flood) (rice (Oryza sativa)): 0; Ragweed plant response rating (0 to 100 scale) ([13]; 125 g ai/ha): 90; Ragweed plant response rating (0 to 100 scale) [13, 20]: 70; Barnyardgrass plant response rating (0 to 100 scale) ([14]; 125 g ai/ha): 40; Barnyardgrass plant response rating (0 to 100 scale) [14, 20]: 40; Ryegrass, Italian plant response rating (0 to 100 scale) ([15]; 125 g ai/ha): 80; Ryegrass, Italian plant response rating (0 to 100 scale) [15, 20]: 0; Pigweed plant response rating (0 to 100 scale) ([16]; 125 g ai/ha): 40; Pigweed plant response rating (0 to 100 scale) [16, 20]: 30; Foxtail, Giant plant response rating (0 to 100 scale) ([17]; 125 g ai/ha): 50; Foxtail, Giant plant response rating (0 to 100 scale) [17, 20]: 0; Kochia plant response rating (0 to 100 scale) (kochia (Bassia scoparia) [18]; 125 g ai/ha): 20; Kochia plant response rating (0 to 100 scale) (kochia (Bassia scoparia) [18]; [20]): 0
2 | CON=C(c1cc(C)cc(Cl)c1)c1c(O)c(C)nn(C)c1=O [Compound 174] | 80 | 90 | 100 | 100 | 60 | 90 | 60 | 100 | 60 | 80 | 30 | 40 | 10 | 20 | 50 | 90 | 0 | 0 | 70 | 90 | Plant response rating, Barnyardgrass (Flood) [10]: 0; Plant response rating, Ducksalad (Flood) [11]: 0; Plant response rating, Sedge, Umbrella (Flood) [12]: 0; Plant response rating, Rice (Flood) (rice (Oryza sativa)): 0; Ragweed plant response rating (0 to 100 scale) ([13]; 125 g ai/ha): 90; Ragweed plant response rating (0 to 100 scale) [13, 20]: 60; Barnyardgrass plant response rating (0 to 100 scale) ([14]; 125 g ai/ha): 90; Barnyardgrass plant response rating (0 to 100 scale) [14, 20]: 70; Ryegrass, Italian plant response rating (0 to 100 scale) ([15]; 125 g ai/ha): 90; Ryegrass, Italian plant response rating (0 to 100 scale) [15, 20]: 80; Pigweed plant response rating (0 to 100 scale) ([16]; 125 g ai/ha): 70; Pigweed plant response rating (0 to 100 scale) [16, 20]: 20; Foxtail, Giant plant response rating (0 to 100 scale) ([17]; 125 g ai/ha): 90; Foxtail, Giant plant response rating (0 to 100 scale) [17, 20]: 70; Kochia plant response rating (0 to 100 scale) (kochia (Bassia scoparia) [18]; 125 g ai/ha): 80; Kochia plant response rating (0 to 100 scale) (kochia (Bassia scoparia) [18]; [20]): 20
3 | CO/N=C(\c1c(O)cnn(C)c1=O)c1ccc(F)c2ccccc12 [Compound 303] | 10 | 20 | 30 | 70 | 0 | 10 | 20 | 40 | 40 | 60 | 0 | 0 | 0 | 0 | 0 | 20 | 0 | 0 | 40 | 50 | Plant response rating, Barnyardgrass (Flood) [10]: 0; Plant response rating, Ducksalad (Flood) [11]: 0; Plant response rating, Sedge, Umbrella (Flood) [12]: 0; Plant response rating, Rice (Flood) (rice (Oryza sativa)): 0; Ragweed plant response rating (0 to 100 scale) [13, 20]: 0; Ragweed plant response rating (0 to 100 scale) [13, 21]: 20; Barnyardgrass plant response rating (0 to 100 scale) [14, 20]: 0; Barnyardgrass plant response rating (0 to 100 scale) [14, 21]: 0; Ryegrass, Italian plant response rating (0 to 100 scale) [15, 20]: 0; Ryegrass, Italian plant response rating (0 to 100 scale) [15, 21]: 20; Pigweed plant response rating (0 to 100 scale) [16, 20]: 10; Pigweed plant response rating (0 to 100 scale) [16, 21]: 30; Foxtail, Giant plant response rating (0 to 100 scale) [17, 20]: 0; Foxtail, Giant plant response rating (0 to 100 scale) [17, 21]: 10; Kochia plant response rating (0 to 100 scale) (kochia (Bassia scoparia) [18]; [20]): 0; Kochia plant response rating (0 to 100 scale) (kochia (Bassia scoparia) [18]; [21]): 10

From patent US20210045385A1, “PYRIDAZINONE-SUBSTITUTED KETOXIMES AS HERBICIDES” (FMC Corporation, priority 2018, published 2021)
